Experimental data published in ChEMBL document CHEMBL1201862, “PubChem BioAssay data set” (2004).
Calls of active or inactive are those of the source.

How the values were obtained:
HEK293 [1] = assay: HEK cell cytotoxicity by LDH release, dose response, cytotoxicity control for IDE activator project, fluorescence, HEK cells (AID 588440); assay type: functional, cell-based; conditions: Homo sapiens;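 further: cytotoxicity by LDH release measuring loss of membrane integrity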
HEK293 [2] = assay: optical interference in Abeta FP readout, dose response, artefact control for IDE activator project, biochemical, fluorescence polarization (AID 588442); assay type: functional, cell-based; conditions: Homo sapiens
Insulin-degrading enzyme [3] = molecular target: T1, Insulin-degrading enzyme (Homo sapiens, UniProt P14735); assay: activators of recombinant IDE enzyme, dose response, counter-screen for IDE activator project, biochemical, fluorescence polarization (AID 588681)
T1 sequence (P14735 whole entry): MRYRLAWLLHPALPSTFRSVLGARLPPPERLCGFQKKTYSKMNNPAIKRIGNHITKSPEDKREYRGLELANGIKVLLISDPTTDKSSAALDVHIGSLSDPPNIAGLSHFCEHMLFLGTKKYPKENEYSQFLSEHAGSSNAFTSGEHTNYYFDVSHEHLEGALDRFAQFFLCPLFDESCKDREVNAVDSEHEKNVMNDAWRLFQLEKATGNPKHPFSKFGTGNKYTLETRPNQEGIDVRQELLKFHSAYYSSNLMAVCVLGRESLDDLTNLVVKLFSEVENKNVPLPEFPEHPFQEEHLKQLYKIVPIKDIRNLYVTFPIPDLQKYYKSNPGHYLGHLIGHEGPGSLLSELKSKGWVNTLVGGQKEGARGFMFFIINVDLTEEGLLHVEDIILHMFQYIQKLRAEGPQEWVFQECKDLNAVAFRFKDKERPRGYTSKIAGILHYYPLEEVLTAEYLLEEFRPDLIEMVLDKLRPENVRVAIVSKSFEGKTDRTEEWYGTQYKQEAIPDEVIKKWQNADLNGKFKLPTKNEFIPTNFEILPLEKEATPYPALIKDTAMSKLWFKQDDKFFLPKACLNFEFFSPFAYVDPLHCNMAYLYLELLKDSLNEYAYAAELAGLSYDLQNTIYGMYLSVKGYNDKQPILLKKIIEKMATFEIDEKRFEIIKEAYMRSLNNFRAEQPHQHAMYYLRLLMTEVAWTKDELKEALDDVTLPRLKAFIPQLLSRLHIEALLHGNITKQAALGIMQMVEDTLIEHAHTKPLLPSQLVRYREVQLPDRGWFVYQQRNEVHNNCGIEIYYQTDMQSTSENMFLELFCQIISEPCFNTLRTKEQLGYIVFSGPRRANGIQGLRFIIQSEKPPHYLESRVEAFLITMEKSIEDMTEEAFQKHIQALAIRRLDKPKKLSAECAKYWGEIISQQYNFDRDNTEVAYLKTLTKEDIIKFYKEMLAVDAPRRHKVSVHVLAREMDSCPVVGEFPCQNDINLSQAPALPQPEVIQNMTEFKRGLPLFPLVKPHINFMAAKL

Insulin-degrading enzyme [4] = molecular target: T1, Insulin-degrading enzyme; assay: activators of endogenous IDE in HEK cells, dose response, cell-based, fluorescence polarization (AID 588439); assay type: functional
Hexokinase HKDC1 = molecular target: T2, Hexokinase HKDC1 (Homo sapiens, UniProt Q2TB90); assay: SAR analysis of small molecule inhibitors of hexokinase domain containing I (HKDC1). [Related pubchem assays (depositor defined):AID493160, AID493190]; assay type: functional
T2 sequence (Q2TB90 whole entry): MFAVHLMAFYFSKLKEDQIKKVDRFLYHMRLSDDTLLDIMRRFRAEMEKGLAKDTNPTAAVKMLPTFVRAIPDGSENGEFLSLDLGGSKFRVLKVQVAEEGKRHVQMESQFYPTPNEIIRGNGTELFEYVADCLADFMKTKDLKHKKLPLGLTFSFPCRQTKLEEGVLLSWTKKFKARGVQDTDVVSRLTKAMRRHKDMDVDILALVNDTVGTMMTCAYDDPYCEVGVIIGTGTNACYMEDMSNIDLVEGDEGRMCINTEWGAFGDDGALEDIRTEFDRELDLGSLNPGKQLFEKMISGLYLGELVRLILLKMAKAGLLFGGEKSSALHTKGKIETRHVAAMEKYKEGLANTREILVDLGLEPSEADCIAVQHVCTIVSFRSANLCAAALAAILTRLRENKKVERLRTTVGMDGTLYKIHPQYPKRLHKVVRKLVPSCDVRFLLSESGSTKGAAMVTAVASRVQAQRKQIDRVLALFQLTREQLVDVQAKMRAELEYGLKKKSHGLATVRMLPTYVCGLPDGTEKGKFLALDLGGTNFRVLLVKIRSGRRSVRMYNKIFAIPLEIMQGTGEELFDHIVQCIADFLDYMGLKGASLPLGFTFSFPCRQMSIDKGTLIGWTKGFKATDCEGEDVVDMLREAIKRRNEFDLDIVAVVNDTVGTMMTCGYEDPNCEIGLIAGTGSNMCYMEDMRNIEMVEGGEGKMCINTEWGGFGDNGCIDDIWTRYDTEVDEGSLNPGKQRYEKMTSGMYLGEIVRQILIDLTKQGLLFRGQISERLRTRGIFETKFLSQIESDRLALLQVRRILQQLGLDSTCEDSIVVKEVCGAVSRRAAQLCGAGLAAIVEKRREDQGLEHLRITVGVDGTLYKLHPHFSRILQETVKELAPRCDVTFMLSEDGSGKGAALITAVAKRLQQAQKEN

Hexokinase-1 = molecular target: T3, Hexokinase-1 (Homo sapiens, UniProt P19367); assay: SAR analysis of small molecule inhibitors of hexokinase domain containing I (HKDC1) in the hexokinase 1 selectivity assay. [Related pubchem assays (depositor defined):AID493160, AID493190]; assay type: functional
T3 sequence (P19367 whole entry): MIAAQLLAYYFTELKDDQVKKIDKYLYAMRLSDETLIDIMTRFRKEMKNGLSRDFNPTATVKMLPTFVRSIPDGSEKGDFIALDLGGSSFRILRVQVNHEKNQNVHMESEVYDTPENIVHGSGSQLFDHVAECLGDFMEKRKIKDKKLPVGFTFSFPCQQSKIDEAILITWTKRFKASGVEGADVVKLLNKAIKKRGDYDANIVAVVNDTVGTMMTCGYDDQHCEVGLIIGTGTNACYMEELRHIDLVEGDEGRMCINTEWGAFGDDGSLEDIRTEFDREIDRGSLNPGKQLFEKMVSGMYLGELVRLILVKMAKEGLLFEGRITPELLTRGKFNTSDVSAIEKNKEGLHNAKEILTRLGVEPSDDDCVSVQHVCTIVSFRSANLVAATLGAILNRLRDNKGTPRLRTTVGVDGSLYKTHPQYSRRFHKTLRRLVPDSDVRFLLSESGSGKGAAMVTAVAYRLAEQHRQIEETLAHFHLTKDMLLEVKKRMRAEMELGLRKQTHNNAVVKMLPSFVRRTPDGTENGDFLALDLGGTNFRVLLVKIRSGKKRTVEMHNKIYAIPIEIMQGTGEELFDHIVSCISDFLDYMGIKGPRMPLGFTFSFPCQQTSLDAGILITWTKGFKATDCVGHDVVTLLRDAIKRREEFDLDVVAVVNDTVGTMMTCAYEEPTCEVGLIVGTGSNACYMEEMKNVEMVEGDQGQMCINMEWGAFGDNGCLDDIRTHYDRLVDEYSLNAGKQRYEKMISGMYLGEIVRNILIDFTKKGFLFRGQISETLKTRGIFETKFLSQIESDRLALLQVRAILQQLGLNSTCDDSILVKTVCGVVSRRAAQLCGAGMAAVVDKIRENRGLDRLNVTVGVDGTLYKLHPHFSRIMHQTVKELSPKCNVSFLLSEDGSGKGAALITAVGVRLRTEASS

[5] = C. albicans growth with fluconazole, confirmation, fluorescence, retest (AID 2467); assay type: functional, cell-based
[6] = NIH-3T3 fibroblast cytotoxicity, dose response, cytotoxicity control, cell-based, fluorescence, Alamar Blue, secondary assay (AID 2327); assay type: functional;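 further: NIH-3T3 mouse fibroblasts cultured with fluconazole at 8 µg/mL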
[7] = molecular target: Serine/threonine-protein phosphatase (Candida dubliniensis (strain CD36 / CBS 7987 / NCPF 3949 / NRRLY-17841) (Yeast), UniProt B9W6M3); assay: calcineurin pathway inhibitors in yeast reporter, dose response, S. cerevisiae, CDRE-lacZ, luminescence, secondary (AID 2388); assay type: functional, cell-based;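 further: yeast reporter cells carrying a calcineurin-responsive lacZ construct stimulated with calcium chloride; luminescent beta-galactosidase reporter signal in whole cells rather than isolated phosphatase activity; potency for inhibition where a drop in reporter signal means calcineurin blockade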
Chain of Serine/threonine-protein phosphatase (B9W6M3 whole entry): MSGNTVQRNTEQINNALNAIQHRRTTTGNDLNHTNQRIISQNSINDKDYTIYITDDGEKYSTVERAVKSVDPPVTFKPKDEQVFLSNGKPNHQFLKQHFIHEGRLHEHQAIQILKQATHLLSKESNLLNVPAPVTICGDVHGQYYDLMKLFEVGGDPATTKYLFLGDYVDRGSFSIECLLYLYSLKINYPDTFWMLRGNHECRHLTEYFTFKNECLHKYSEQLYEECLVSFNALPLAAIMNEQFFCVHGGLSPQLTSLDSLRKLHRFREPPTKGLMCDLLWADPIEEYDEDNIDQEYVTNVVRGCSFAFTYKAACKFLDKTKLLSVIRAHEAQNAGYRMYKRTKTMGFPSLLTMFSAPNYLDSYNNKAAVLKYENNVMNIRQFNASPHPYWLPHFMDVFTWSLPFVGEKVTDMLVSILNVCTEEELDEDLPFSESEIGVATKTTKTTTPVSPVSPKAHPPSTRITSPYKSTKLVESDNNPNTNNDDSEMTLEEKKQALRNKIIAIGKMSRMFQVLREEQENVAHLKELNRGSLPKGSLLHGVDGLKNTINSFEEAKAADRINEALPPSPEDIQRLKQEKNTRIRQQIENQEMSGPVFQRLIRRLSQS

[8] = molecular target: T4, Corticotropin-releasing factor receptor 2/Corticotropin-releasing factor-binding protein (Homo sapiens, UniProt P24387+Q13324); assay: activators of CRF receptor 2 with binding protein – uHTS hits, confirmation (AID 602473); assay type: functional; conditions: read-out: EC50_Mean
T4 sequence (Q13324 whole entry): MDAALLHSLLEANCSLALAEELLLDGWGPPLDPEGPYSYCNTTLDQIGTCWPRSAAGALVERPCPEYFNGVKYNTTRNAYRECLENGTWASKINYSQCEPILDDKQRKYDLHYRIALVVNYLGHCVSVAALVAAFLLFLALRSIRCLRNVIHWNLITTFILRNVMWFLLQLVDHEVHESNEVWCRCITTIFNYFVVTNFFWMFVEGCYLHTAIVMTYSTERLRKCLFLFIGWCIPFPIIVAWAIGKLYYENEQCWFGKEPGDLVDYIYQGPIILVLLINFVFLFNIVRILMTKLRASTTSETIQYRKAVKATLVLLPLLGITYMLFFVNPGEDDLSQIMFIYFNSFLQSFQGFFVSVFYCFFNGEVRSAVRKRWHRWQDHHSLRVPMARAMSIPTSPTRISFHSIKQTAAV
T4 sequence (P24387 whole entry): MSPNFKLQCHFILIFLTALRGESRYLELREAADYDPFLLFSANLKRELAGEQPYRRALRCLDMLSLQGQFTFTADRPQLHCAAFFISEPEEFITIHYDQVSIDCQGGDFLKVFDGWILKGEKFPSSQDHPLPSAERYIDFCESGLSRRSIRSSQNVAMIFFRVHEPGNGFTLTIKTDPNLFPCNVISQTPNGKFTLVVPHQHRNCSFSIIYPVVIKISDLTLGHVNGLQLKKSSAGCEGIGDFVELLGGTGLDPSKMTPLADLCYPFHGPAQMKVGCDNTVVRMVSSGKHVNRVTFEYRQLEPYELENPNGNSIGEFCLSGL

[9] = molecular target: NACHT, LRR and PYD domains-containing protein 3 (Homo sapiens, UniProt Q96P20); assay: NALP3 inhibitors in yeast, dose response, luminescent (AID 488799); assay type: functional
Chain of NACHT, LRR and PYD domains-containing protein 3 (Q96P20 whole entry, the tested form may be a part): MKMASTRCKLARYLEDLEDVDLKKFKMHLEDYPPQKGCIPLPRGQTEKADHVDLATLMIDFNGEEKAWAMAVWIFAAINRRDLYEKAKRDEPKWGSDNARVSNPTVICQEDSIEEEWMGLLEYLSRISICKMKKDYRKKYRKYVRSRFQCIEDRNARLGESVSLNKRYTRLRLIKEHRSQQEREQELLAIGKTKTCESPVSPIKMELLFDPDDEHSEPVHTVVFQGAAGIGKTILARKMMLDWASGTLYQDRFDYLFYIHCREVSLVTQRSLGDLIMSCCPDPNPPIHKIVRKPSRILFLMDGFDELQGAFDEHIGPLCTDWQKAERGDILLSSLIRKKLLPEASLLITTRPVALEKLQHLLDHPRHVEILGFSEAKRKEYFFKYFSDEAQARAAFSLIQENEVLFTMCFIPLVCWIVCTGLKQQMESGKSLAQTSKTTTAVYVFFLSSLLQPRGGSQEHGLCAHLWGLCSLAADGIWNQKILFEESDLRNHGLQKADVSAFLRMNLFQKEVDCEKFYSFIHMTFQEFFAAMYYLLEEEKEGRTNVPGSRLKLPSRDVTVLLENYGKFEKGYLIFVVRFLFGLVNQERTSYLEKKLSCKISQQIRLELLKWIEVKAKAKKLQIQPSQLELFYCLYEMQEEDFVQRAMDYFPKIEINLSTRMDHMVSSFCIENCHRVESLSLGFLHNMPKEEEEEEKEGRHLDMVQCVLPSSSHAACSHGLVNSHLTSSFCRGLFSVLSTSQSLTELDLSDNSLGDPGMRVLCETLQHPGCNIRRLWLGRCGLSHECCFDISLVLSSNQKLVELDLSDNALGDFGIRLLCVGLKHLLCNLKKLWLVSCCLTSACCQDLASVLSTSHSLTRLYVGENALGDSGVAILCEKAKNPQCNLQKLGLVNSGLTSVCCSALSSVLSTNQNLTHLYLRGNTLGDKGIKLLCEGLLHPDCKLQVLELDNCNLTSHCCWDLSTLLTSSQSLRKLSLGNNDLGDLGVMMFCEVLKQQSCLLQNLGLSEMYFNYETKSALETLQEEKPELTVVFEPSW

[10] = molecular target: ATP-dependent molecular chaperone HSP82 (Candida albicans (strain WO-1) (Yeast), UniProt C4YTQ8); assay: loss of DOC-induced GRE-beta-galactosidase reporter signal, dose response, Hsp90 inhibitor project, S. cerevisiae, luminescence (AID 2400); assay type: functional, cell-based;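 further: beta-galactosidase luminescence from glucocorticoid response element reporter as proxy for Hsp90 function; inhibitor potency where signal loss means Hsp90 inhibition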
Chain of ATP-dependent molecular chaperone HSP82 (C4YTQ8 whole entry): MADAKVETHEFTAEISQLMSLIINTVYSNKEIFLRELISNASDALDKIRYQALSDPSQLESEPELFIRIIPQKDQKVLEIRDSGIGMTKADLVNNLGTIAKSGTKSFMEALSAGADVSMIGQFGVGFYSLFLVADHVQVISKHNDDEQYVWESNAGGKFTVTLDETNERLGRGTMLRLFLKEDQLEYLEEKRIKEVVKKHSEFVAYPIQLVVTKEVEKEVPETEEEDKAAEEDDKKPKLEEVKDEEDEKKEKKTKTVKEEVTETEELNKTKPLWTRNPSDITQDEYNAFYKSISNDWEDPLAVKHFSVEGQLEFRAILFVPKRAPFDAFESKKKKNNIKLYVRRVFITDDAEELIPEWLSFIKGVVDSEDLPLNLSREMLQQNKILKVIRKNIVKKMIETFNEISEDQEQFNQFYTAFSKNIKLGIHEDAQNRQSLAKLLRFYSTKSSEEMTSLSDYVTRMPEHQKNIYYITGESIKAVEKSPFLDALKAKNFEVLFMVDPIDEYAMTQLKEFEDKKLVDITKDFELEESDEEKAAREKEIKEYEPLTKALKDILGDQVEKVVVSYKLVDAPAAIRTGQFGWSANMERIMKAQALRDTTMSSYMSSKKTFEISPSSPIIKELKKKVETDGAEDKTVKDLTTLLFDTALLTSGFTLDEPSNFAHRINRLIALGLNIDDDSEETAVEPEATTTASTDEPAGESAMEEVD

For `Cc1nc(Cc2nnc(SC(C)C(=O)N3c4ccccc4NC(=O)C3(C)C)o2)cs1` (configuration not stated), the IC50 (HEK293 [1]) was > 89.1 µM (inactive), the EC50 (HEK293 [2]) was > 55.9 µM (inactive) and the EC50 (Insulin-degrading enzyme [3]) was > 54.7 µM (inactive). For the same molecule, the EC50 (Insulin-degrading enzyme [4]) was > 54.7 µM (inactive).

In the case of `O=C(Nc1nnc(SCc2ccccc2)s1)c1ccc2ncsc2c1`, the IC50 (Hexokinase HKDC1) is reported as > 80 µM (inactive) and the IC50 (Hexokinase-1) is reported as > 80 µM (inactive).

In the case of `O=C(NNC(=S)NC(=O)c1ccc(Br)cc1)c1ccc([N+](=O)[O-])cc1`, the EC50 [5] is reported as 0.198 µM (active), the EC50 [6] is reported as > 160 µM (inconclusive) and the EC50 [7] is reported as > 180 µM (inactive). The EC50 [8] was 5.32 µM (active), the IC50 [9] was 5.63 µM (active) and the EC50 [10] was > 160 µM (inactive).
